Measurements as given in patent US20240246934A1, “QUINAZOLINE-BASED COMPOUND, COMPOSITION, AND APPLICATION OF QUINAZOLINE-BASED COMPOUND” (BEIJING SCITECH-MQ PHARMACEUTICALS LIMITED, priority 2021, published 2024).

Tests used:
EGFR^WT kinase = EGFR^WT kinase (Homo sapiens, UniProt P00533); test: EGFR^WT kinase assay (ULight/PT66 TR-FRET); type: biochemical
Procedure, shortened: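 Enzyme preincubated 5 min with compound (11-point 3-fold series, duplicate), then ULight-JAK-1 (Tyr1023) peptide and ATP added at 4× stocks of 400 nM and 600 μM; 120 min reaction at room temperature. PT66 antibody TR-FRET read after 60 min; IC50 fitted from inhibition rates.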

[1] = target: Ba/F3 HER2 A775_G776insYVMA cells (Homo sapiens, UniProt P04626, DUP772-775, cells depend on it); test: Inhibition of cell proliferation, CTG method, Ba/F3 HER2 A775_G776insYVMA; type: cell-based; settings: 72 hours, read-out: Ba/F3 HER2 A775-G776insYVMA IC50
Ba/F3 HER2 A775_G776insYVMA cells, sequence (P04626 with tags, fused parts or gaps DUP772-775): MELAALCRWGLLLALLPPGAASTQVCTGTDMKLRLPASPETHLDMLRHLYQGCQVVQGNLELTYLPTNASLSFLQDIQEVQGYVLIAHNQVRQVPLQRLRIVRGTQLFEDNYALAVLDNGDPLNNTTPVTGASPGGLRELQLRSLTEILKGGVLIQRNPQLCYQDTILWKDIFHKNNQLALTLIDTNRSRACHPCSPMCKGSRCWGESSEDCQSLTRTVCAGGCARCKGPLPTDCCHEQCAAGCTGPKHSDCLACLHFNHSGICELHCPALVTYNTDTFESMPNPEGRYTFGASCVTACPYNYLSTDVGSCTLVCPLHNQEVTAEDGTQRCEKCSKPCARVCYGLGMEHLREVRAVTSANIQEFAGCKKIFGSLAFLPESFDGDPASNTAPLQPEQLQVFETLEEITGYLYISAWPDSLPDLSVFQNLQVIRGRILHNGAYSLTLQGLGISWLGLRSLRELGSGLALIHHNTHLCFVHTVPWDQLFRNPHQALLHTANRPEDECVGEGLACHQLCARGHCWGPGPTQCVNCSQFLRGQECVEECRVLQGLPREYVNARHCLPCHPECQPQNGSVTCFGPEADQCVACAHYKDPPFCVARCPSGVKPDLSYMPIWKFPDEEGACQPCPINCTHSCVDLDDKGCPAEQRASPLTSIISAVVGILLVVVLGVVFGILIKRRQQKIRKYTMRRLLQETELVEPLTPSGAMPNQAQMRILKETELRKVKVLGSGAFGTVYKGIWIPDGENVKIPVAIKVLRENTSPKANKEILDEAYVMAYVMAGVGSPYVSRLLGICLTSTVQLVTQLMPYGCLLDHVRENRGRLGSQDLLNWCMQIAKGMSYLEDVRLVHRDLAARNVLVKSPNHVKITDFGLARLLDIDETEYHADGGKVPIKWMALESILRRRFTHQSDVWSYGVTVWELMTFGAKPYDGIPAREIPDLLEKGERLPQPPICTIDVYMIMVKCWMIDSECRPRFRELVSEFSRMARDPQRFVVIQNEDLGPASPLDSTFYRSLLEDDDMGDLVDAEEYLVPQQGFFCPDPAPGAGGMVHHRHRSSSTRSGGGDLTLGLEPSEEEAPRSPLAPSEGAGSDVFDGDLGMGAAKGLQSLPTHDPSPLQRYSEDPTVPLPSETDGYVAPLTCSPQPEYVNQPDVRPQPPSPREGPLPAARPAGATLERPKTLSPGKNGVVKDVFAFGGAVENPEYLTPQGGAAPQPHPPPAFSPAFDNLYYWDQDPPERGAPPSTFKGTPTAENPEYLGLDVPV
Procedure, shortened: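 Ba/F3 HER2 A775_G776insYVMA cells in RPMI1640 with 10% FBS were plated at 3000 cells/well and treated directly with compound (top 10 μM, 4-fold, 9 concentrations, duplicates).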

HER2 kinase = target: T1, HER2 kinase (Homo sapiens, UniProt P04626); test: HER2 kinase assay (ULight/PT66 TR-FRET); type: biochemical
T1 construct: purchased Carna Biosciences 08-016
T1 sequence (P04626 23-1255): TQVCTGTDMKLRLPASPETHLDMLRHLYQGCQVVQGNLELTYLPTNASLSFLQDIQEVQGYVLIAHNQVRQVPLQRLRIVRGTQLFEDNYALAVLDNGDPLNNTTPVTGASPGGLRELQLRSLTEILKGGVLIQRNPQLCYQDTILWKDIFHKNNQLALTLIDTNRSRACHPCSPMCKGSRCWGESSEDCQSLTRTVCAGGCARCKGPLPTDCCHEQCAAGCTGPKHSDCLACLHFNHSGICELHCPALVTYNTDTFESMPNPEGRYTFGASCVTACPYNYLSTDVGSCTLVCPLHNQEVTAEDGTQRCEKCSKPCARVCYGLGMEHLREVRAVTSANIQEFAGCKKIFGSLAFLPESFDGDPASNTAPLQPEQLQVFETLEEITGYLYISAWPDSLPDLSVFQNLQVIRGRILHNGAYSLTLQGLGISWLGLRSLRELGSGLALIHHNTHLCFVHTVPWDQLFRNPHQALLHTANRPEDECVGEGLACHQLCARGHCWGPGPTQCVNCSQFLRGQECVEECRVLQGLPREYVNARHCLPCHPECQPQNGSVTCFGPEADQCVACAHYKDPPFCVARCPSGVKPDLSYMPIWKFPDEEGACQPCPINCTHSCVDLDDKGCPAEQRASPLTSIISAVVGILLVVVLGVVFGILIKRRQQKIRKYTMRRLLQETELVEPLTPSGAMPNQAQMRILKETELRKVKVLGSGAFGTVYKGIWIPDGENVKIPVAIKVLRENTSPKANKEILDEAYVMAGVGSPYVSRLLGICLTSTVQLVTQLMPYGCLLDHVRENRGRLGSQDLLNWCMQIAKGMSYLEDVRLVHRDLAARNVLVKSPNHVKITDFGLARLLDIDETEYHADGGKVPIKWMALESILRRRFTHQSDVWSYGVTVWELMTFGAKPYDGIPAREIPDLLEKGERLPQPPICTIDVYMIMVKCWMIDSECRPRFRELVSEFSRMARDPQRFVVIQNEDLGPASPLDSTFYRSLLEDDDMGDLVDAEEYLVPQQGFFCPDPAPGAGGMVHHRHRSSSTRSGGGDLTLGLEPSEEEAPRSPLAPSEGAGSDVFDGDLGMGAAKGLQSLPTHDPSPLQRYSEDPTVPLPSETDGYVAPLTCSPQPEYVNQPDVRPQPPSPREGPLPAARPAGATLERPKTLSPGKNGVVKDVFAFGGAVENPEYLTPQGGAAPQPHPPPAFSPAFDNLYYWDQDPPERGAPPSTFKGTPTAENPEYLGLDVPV
Procedure, shortened: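 HER2 kinase preincubated 5 min with compounds (11-point 3-fold series, duplicates), then reacted 120 min at room temperature with ATP and ULight-poly GT peptide, each prepared at 4× working concentration (40 μM ATP, 400 nM substrate, 40 nM kinase). PT66 antibody added for 60 min, TR-FRET read; IC50 from inhibition curves.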

NCI-N87 cells = test: Inhibition of cell proliferation, CTG method, NCI-N87; type: cell-based; settings: Homo sapiens, 72 hours, read-out: hNCI-N87 IC50
Description: (§1) The present application examined the in vitro anti-proliferative activity of the compounds of the present disclosure against in vitro cultured BT474, NCI-N87, Ba/F3-EGFR-VIII and Ba/F3 HER2 A775_G776insYVMA and Ba/F3 EGFR D770_N771insSVD cell lines by CTG method.
(§2) Reagents and consumables: RPMI1640 (ThermoFisher, Cat. No. C11875500BT); fetal bovine serum (Hyclone, Cat. No. SV30087.03); 0.25% trypsin-EDTA (ThermoFisher, Cat. No. 25200-072); penicillin-streptomycin (Hyclone, Cat. No. SV30010); DMSO (Amresco, Cat. No. 0231-500ML); CTG assay kit (Promega, Cat. No. G924C); 96-well plate (Corning, Cat. No. 3603); multifunctional plate reader (Perkin Elmer, Cat. No. Envision)
(§3) Cell lines: BT474 (from the cell bank of Chinese Academy of Sciences), NCI-N87 (from ATCC), Ba/F3-EGFR-VIII, Ba/F3 HER2 A775_G776insYVMA and Ba/F3 EGFR D770_N771insSVD (all from KYinno Biotechnology (Beijing) Co., Ltd.); all of the above cells were cultured with RPMI1640 medium containing 10% fetal bovine serum, 100 U/mL penicillin, and 100 μg/mL streptomycin in the culture process.
(§4) 1. The assay compound was dissolved with DMSO to form a stock solution and a gradient dilution was performed, followed by dilution with the corresponding medium to obtain a solution with 5-fold working concentration.
(§5) 2. Cells in logarithmic growth phase were adjusted to specific cell densities by dilution with culture medium, and 80 μL of cell suspension was added to a 96-well plate, such that plating densities of cells of BT474, NCI-N87, Ba/F3-EGFR-VIII, Ba/F3 HER2 A775_G776insYVMA and Ba/F3 EGFR D770_N771insSVD were all 3000 cells/well. The cells of Ba/F3-EGFR-VIII, Ba/F3 HER2 A775_G776insYVMA and Ba/F3 EGFR D770_N771insSVD were used directly in the next step (treatment with compound), whereas the BT474 and NCI-N87 needed to be cultured overnight in a 37° C., 5% carbon dioxide gas incubator to adhere to the wall, and then treated with compounds.
(§6) 3. 20 μL of compound solution was added to each well of the 96-well plate that had been inoculated with cells. The highest concentration of the assayed compound was 10 μM, 4-fold serial dilution, a total of 9 concentrations, and duplicate wells. A control group without compound was also set up.
(§7) 4. The cells were cultured for another 72 hours, and then cell viability was detected by CTG assay kit. Signal values were read with a multifunctional plate reader (Perkin Elmer). GraphPad Prism software was used to create a dose-response curve and IC50 was calculated.

BT474 cells = test: Inhibition of cell proliferation, CTG method, BT474; type: cell-based; settings: Homo sapiens, BT-474, 72 hours, read-out: hBT474 IC50
Description: as §1, §2, §3
1. […]
as §7

[2] = target: Ba/F3 EGFR D770_N771insSVD cells (Homo sapiens, UniProt P00533, DUP768-770, cells depend on it); test: Inhibition of cell proliferation, CTG method, Ba/F3 EGFR D770_N771insSVD; type: cell-based; settings: 72 hours, read-out: Ba/F3 EGFR D770_N771insSVD IC50
Ba/F3 EGFR D770_N771insSVD cells, sequence (P00533 with tags, fused parts or gaps DUP768-770): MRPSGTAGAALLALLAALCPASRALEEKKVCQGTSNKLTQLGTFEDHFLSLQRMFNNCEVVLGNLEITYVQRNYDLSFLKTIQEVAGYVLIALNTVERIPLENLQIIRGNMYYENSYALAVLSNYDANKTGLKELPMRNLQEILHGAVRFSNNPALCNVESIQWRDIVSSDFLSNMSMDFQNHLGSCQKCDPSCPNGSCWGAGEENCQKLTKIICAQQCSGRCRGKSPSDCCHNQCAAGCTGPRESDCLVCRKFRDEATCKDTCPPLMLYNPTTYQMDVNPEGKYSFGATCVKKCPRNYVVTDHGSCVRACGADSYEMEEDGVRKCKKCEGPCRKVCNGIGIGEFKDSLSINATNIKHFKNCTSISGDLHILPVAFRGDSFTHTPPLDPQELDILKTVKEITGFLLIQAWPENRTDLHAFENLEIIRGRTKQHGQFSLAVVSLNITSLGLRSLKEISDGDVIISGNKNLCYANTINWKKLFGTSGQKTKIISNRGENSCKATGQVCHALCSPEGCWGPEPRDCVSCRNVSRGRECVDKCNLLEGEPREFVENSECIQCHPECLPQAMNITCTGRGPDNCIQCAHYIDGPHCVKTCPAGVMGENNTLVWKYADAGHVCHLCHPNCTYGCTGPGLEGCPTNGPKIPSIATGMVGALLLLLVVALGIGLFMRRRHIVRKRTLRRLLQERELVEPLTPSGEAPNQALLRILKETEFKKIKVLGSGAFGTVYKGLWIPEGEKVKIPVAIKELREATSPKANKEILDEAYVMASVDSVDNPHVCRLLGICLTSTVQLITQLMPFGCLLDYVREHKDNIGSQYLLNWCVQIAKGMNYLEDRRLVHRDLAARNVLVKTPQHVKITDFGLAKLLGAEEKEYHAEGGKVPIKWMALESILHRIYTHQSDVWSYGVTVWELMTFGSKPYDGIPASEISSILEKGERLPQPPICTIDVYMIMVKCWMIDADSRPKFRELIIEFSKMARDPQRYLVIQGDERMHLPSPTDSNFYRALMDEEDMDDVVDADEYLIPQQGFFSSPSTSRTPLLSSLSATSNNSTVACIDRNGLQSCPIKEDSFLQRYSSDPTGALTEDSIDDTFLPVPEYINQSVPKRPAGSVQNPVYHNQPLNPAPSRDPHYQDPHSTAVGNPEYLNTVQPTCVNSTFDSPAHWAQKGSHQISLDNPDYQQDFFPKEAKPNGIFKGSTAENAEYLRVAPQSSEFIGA
Description: as §1, §2, §3, §4, §5, §6, §7

[3] = test system: Ba/F3 ERBB2 A775_G776insYVMA; test: Efficacy in nude mouse tumor-bearing model of Ba/F3 ERBB2 A775_G776insYVMA; type: in vivo, BALB/c nude mice; settings: 30 mg/kg, QD×15, PO; day 15
Experimental: In this assay, some compounds of the application were orally administered to a nude mouse tumor-bearing model of Ba/F3 ERBB2 A775_G776insYVMA to study the effect of the compounds of the application on tumor growth.
Preparation of the assay compound: an appropriate weight of the compound to be assayed was weighed, and completely dissolved in an appropriate volume of vehicle (DMSO). The mixture was vortexed or sonicated. Then an appropriate amount of Solutol was added and mixed well. Finally, sterilized drinking water was added and the mixture was mixed by stirring or vortexing to obtain a homogeneous solution or suspension.
Method: All the assays were authorized and agreed by the Animal Welfare Committee. Ba/F3 ERBB2 A775_G776insYVMA in a logarithmic growth period was inoculated subcutaneously into the right back of immunodeficient nude mice (BALB/c nude, female, 6-7 weeks of age, body weight 18±2 g) with 4×10^6 cells/rat. After the tumor grew to 150-200 mm^3, the animals were randomly divided into a treatment group and a control group. For the treatment group, a solution of each assay compound was given, and for the control group, a vehicle solution without the assay compound was given. Both of the treatment group and the control group were administered once a day for about 2 weeks. The dose of each assay article was 30 mg/kg (in terms of effective compound concentration), and the assay compounds were all prepared freshly for use. During the assay, the diameter of loaded tumors was measured twice a week, and the mice were weighed at the same time. The tumor volume (TV) was calculated by the formula: TV=½×a×b^2, where a and b denote length and width, respectively. Relative tumor volume (RTV) was calculated based on the measured results by the formula: RTV=Vt/V0, where V0 is the tumor volume measured at grouping and administration and Vt is the tumor volume at each measurement. The evaluation index of antitumor activity was the relative tumor proliferation rate T/C (%) calculated by the formula: T/C (%)=(TRTV/CRTV)×100%, TRTV: RTV of the administration group; CRTV: RTV of the control group. T and C denote the average tumor volume at a certain time point in the administration group and the control group, respectively.

Ba/F3-EGFR-VIII cells = Ba/F3-EGFR-VIII cells (Homo sapiens, UniProt P00533, DELINS30-297G, cells depend on it); test: Inhibition of cell proliferation, CTG method, Ba/F3-EGFR-VIII; type: cell-based; settings: 72 hours, read-out: Ba/F3 EGFRvIII IC50
Description: as §1, §2, §3
1. […]
as §7

EGFR^WT kinase, sequence (P00533 25-1210): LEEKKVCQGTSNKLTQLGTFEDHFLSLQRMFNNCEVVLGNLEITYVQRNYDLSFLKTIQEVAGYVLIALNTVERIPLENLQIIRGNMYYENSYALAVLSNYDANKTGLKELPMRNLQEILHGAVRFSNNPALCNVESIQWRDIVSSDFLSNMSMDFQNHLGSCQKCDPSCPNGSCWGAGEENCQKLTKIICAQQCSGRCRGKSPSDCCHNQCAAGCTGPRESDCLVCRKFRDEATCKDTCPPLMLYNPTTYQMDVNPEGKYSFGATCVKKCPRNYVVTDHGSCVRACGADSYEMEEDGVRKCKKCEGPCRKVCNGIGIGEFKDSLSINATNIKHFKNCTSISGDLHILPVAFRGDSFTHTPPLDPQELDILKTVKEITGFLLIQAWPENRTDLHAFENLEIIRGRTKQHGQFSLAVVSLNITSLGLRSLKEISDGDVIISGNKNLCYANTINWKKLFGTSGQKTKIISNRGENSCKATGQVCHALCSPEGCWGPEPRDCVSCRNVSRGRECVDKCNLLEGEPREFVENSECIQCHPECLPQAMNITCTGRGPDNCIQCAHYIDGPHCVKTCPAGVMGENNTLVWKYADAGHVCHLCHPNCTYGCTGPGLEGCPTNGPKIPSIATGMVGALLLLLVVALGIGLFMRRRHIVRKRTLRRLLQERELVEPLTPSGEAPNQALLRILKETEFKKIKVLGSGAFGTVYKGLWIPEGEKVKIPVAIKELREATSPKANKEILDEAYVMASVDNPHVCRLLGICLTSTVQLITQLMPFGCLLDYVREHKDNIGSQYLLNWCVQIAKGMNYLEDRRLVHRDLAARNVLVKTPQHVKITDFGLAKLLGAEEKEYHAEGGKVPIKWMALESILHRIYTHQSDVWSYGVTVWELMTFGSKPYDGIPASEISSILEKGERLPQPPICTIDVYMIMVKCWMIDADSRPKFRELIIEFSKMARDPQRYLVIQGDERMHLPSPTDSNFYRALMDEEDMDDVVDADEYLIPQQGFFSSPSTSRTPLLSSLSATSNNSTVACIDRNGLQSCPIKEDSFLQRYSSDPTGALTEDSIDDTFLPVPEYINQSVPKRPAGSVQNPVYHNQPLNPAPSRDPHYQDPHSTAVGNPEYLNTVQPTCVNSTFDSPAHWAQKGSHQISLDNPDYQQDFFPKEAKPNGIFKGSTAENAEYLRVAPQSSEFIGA

Row | SMILES | IC50 (EGFR^WT kinase) [nM] | GI50 [1] [nM] | IC50 (HER2 kinase) [nM] | IC50 (BT474 cells) [nM] | GI50 [2] [nM] | GI50 (Ba/F3-EGFR-VIII cells) [nM] | IC50 (NCI-N87 cells) [nM] | T/C (%) [3] [%]
1 | CCOc1c(NC(=O)/C=C/[C@H]2CCCN2C)ccc2ncnc(Nc3ccc(OCc4ccccn4)c(Cl)c3)c12 [Example 5, (R,E)-N-(4-((3-chloro-4-(pyridin-2-ylmethoxy)phenyl)amino)-5-ethoxyquinazolin-6-yl)-3-(1-methylpyrrolidin-2-yl)acrylamide] | 10 to 100 | < 1 | < 10 | 10 to 100 |  |  | 1 to 5 | 
2 | COCCN1CCC[C@@H]1/C=C/C(=O)Nc1ccc2ncnc(Nc3ccc(OCc4cccc(F)c4)c(Cl)c3)c2c1OC [Example 26] | 10 to 100 | 1 to 5 | < 10 |  | 10 to 100 |  |  | 
3 | COc1c(NC(=O)/C=C/CN(C)C)ccc2ncnc(Nc3ccc(OCc4ccccn4)c(Cl)c3)c12 [Example 1, (E)-N-(4-((3-chloro-4-(pyridin-2-ylmethoxy)phenyl)amino)-5-methoxyquinazolin-6-yl)-4-(dimethylamino)but-2-enamide] | < 10 | 1 to 5 | < 10 |  |  | 1 to 5 | 1 to 5 | 
4 | CN1CCC[C@@H]1/C=C/C(=O)Nc1ccc2ncnc(Nc3ccc(OCc4ccccn4)c(Cl)c3)c2c1OCCO [Example 6, (R,E)-N-(4-((3-chloro-4-(pyridin-2-ylmethoxy)phenyl)amino)-5-(2-hydroxyethoxy)quinazolin-6-yl)-3-(1-methylpyrrolidin-2-yl)acrylamide] | < 10 | 1 to 5 | < 10 |  | 5 to 10 |  |  | 

More lines, main results first:

Row | IC50 (EGFR^WT kinase) [nM] | GI50 [1] [nM] | IC50 (HER2 kinase) [nM] | IC50 (BT474 cells) [nM] | GI50 [2] [nM] | GI50 (Ba/F3-EGFR-VIII cells) [nM] | SMILES | IC50 (NCI-N87 cells) [nM] | T/C (%) [3] [%]
5 | < 10 | 1 to 5 | < 10 |  | 10 to 100 |  | CN1CCC[C@@H]1/C=C/C(=O)Nc1ccc2ncnc(Nc3ccc(OCc4ccccn4)c(Cl)c3)c2c1OCCCO [Example 17, (R,E)-N-(4-((3-chloro-4-(pyridin-2-ylmethoxy)phenyl)amino)-5-(3-hydroxypropoxy)quinazolin-6-yl)-3-(1-methylpyrrolidin-2-yl)acrylamide] |  | 
6 | < 10 | 1 to 5 | < 10 |  | 10 to 100 |  | CN1CCC[C@@H]1/C=C/C(=O)Nc1ccc2ncnc(Nc3ccc(OCc4ccccn4)c(Cl)c3)c2c1OCC(C)(C)O [Example 15, (R,E)-N-(4-((3-chloro-4-(pyridin-2-ylmethoxy)phenyl)amino)-5-(2-hydroxy-2-methylpropoxy)quinazolin-6-yl)-3-(1-methylpyrrolidin-2-yl)acrylamide] |  | 
7 | < 10 | 1 to 5 | < 10 |  | 10 to 100 |  | CCN1CCC[C@@H]1/C=C/C(=O)Nc1ccc2ncnc(Nc3ccc(OCc4cccc(F)c4)c(Cl)c3)c2c1OC [Example 28, (R,E)-N-(4-((3-chloro-4-(3-fluorobenzyloxy)phenyl)amino)-5-methoxyquinazolin-6-yl)-3-(1-ethylpyrrolidin-2-yl)acrylamide] |  | 
8 | < 10 | 1 to 5 | < 10 |  | 10 to 100 |  | COCCOc1c(NC(=O)/C=C/[C@H]2CCCN2C)ccc2ncnc(Nc3ccc(OCc4ccccn4)c(Cl)c3)c12 [Example 8, (R,E)-N-(4-((3-chloro-4-(pyridin-2-ylmethoxy)phenyl)amino)-5-(2-methoxyethoxy)quinazolin-6-yl)-3-(1-methylpyrrolidin-2-yl)acrylamide] |  | 5.83
9 | < 10 | 1 to 5 | < 10 |  | 10 to 100 |  | COc1c(NC(=O)/C=C/CN(C)C)ccc2ncnc(Nc3ccc(OCc4cccc(F)c4)c(Cl)c3)c12 [Example 2, (E)-N-(4-((3-chloro-4-(3-fluorobenzyloxy)phenyl)amino)-5-methoxyquinazolin-6-yl)-4-(dimethylamino)but-2-enamide] | 1 to 5 | 
10 | < 10 | 1 to 5 | < 10 |  | 10 to 100 |  | CN1CCC[C@@H]1/C=C/C(=O)Nc1ccc2ncnc(Nc3ccc(OCc4ccccn4)c(Cl)c3)c2c1OCCCF [Example 10, (R,E)-N-(4-((3-chloro-4-(pyridin-2-ylmethoxy)phenyl)amino)-5-(3-fluoropropoxy)quinazolin-6-yl)-3-(1-methylpyrrolidin-2-yl)acrylamide] |  | 
